Assays:
[1] = system: constitutively activated mutant canine KIT (BR and C2 cells); assay: KIT autophosphorylation in BR and C2 cell lysates (anti-P-Tyr Western immunoblot); format: cell-based
Description: Antibodies: A polyclonal rabbit anti-KIT antibody (c-kit Ab-1) was used at a dilution of 1:500 (c-kit Ab-1; Oncogene, Cambridge, Mass.). An anti-phosphotyrosine antibody (PY20) was used at a dilution of 1:1000 (PY20 Transduction Laboratories; Lexington, Ky.). Peroxidase conjugated goat anti-mouse antibody was used at a dilution of 1:5000 and goat anti-rabbit antibody at a dilution of 1:10,000 (Pierce; Rockford, Ill.).
(§1) Cell lines: BR and C2 canine mastocytoma cells lines were obtained from Dr. George Caughey (University of California at San Francisco, San Francisco, Calif.). Both cell lines were maintained in DMEM supplemented with 2% bovine calf, 1 mM L-glutamine, 12.5 mM HEPES (pH 7.5), 0.25 mg/mL Histidine, 1% Penicillin-Streptomycin and 1% fungizone. The BR and C2 cells were derived from canine mast cell tumors and were originally established in long-term culture after initial passaging in immunodeficient mice (DeVinney et al., Am. J. Respir. Cell Mol. Biol., Vol. 3, No. 5, pp. 413-420 (1990); Lazarus et al., Am. J. Physiol., Vol. 251, No. 6, Pt 1, pp. C935-C944 (1986)). The BR cell line has a point mutation (T1752C) resulting in a Leucine to Proline substitution at amino acid 575 (juxtamembrane domain). The C2 cell line has an internal tandem duplication (ITD) of the KIT juxtamembrane region.
Protein lysates: BR and C2 cells were washed ×2 in PBS and then quiesced in Optimem (Gibco-BRL) at 37° C. for approximately 18 hours.
Dermatol., Vol.114, No. 2, pp. 392-394 (2000)).

[2] = system: BR or C2 cells; assay: Proliferation of BR or C2 cells (cell lines not separated); format: cell-based, canine
Procedure: as §1

[3] = system: cutaneous mast cell tumors; assay: Prospective case series of pet dogs with measurable cutaneous mast cell tumors; format: in vivo, dog; details: 25 mg/kg PO QD x 60 days of SALT I
Procedure: The study patients are pet dogs with measurable and histologically-confirmed mast cell tumors. Cases are limited to those with measurable lesions amenable to biopsy.
Pretreatment evaluation of all cases include physical examination, complete blood count, buffy coat, serum biochemistry, urinalysis, serum bile acids (fasting and post-prandial), documentation of regional lymph node size, abdominal radiographs and abdominal ultrasound. The treatment regimen is 25 mg/kg PO QD×60 days of SALT I.
Treatment is continued in all cases for 60 days unless disease progression is noted. In cases experiencing partial response or complete response ongoing therapy for an additional 60 days may be considered. Cases successfully completing therapy are eligible for repeat entry to study.
The efficacy of COMPOUND I is assessed against measurable cutaneous mast cell tumors, using clinical endpoints. Biological endpoints may be taken from serial biopsies collected from cutaneous tumors and from blood samples available through the treatment course.
Clinical endpoints include response rate of measurable tumors, objective response against measurable tumor, and time to progression of measurable tumor. All adverse side effects will be recorded.
Furthermore, it may be observed that more animals obtaining treatment show Stable Disease (SD), while less treated animals show Progressive Disease (PD). […]

Cc1ccc(NC(=O)c2ccc(CN3CCN(C)CC3)cc2)cc1Nc1nccc(-c2cccnc2)n1 [COMPOUND I]
Inhibition of KIT autophosphorylation ([1]; 0.1 μM dose, BR or C2 cells): Near complete inhibition
Autophosphorylation of c-kit ([1]; 0.001-0.01 μM doses, BR or C2 cells): Limited autophosphorylation
Inhibition of KIT autophosphorylation ([1]; 10 and 1.0 μM doses, BR or C2 cells, 90 minutes incubation, no SLF): complete inhibition
Potency on mutated c-kit receptor compared with wild type c-kit receptor ([1]; BR and C2 cells against literature wild type value): more potent inhibitor of this mutated receptor than it is of the wild type c-kit receptor
Expression of c-kit protein (membrane reprobed with anti-c-kit antibody) ([1]; treated BR or C2 cells): no change in expression of c-kit protein
Inhibition of proliferation ([2]; 0.001-0.01 μM, 48-72 hours): Partial inhibition
Morphologic observations of inhibitor treated cells ([2]; data not shown): changes consistent with apoptosis
Objective Tumors Responses [3]: are observed

— patent US20030191131A1, “Use of organic compounds” (priority 2002, published 2003)
